These results are taken from patent USRE39181E1, “Aqueous risperidone formulations” (priority 1994, dated 2006).

For this data set the following is noted: room temperature.

With risperidone tartrate, the “solubility relative to risperidone hydrochloride” value was “about 4 times”. Also, under “aqueous media”, the solubility entry is recorded as “about 80 mg/ml”.
